Results taken from article PMC3933948 (Bioorganic & medicinal chemistry, 2013).
Where two headings read alike, the source gives them in different places.

Tests used:
[1] = target: T1, recombinant human aromatase (CYP19) (Homo sapiens, UniProt P11511); experiment: Fluorescence-based aromatase activity assay; assay type: biochemical; conditions: for aromatase inhibition (in words): enzymatic assay; for fold increase in aromatase inhibitory potency vs precursor 1e: compared with 3-(pyridin-3-yl)chroman-4-one 1e
T1 sequence (P11511 1-503): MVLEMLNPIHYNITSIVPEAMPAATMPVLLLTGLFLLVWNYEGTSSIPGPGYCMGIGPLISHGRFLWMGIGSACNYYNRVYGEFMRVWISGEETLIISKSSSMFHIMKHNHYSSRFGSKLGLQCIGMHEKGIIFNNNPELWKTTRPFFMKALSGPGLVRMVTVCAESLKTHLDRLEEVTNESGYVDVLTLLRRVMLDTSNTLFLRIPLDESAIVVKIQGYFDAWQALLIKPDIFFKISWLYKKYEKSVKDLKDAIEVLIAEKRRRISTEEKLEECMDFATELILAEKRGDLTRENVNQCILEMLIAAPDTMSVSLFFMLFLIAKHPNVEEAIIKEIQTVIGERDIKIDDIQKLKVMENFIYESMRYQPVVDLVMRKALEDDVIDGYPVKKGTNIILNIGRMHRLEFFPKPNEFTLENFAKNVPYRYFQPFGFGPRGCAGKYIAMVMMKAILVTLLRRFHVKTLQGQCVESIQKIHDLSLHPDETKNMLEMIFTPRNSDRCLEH

[2] = target: T1, recombinant human aromatase (CYP19); conditions: AI previously synthesized in the authors' lab ref 9; cited from earlier work
MCF-7 cells = experiment: Estrogen-dependent MCF-7 growth inhibition; assay type: cell-based, human; conditions: estrogen-dependent MCF-7 cells
[3] = system: non-estrogen dependent MCF-7 cells; experiment: Growth inhibition of non-estrogen dependent MCF-7 cells; assay type: cell-based, human; conditions: MCF-7 cells raised without estrogen

Structure (SMILES) | aromatase inhibition (in words) [1] | anti-proliferative activity on MCF-7 (in words) (MCF-7 cells) | fold increase in aromatase inhibitory potency vs precursor 1e [1] | further results
COc1ccc2c(c1)C(=O)C(c1ccc(Oc3ccccc3)cc1)CO2 (stereo not shown) [3b, 6-Methoxy-3-(4-phenoxyphenyl)chroman-4-one] | No significant inhibition | – | – | –
O=C1c2c(ccc3ccccc23)OCC1c1ccc(Oc2ccccc2)cc1 (stereo not shown) [3a, 2-(4-Phenoxyphenyl)-2,3-dihydro-1H-benzo[f]chromen-1-one] | No significant inhibition | – | – | –
O=C1c2ccccc2OCC1c1ccc(-c2ccccc2)cc1 (stereo not shown) [1c, 3-(biphenyl-4-yl)chroman-4-one] | – | did not show anti-cancer cell activity | – | aromatase inhibition (in words) [2]: inactive
O=C1c2cc(F)ccc2OCC1c1cccnc1 (stereo not shown) [3e, 6-Fluoro-3-(pyridin-3-yl)chroman-4-one] | – | inactive | 7 fold | fold increase in aromatase inhibitory potency vs parent 1a ([1]; compared with parent molecule 1a): 36 fold
COc1ccc2c(c1)C(=O)C(c1cccnc1)CO2 (stereo not shown) [3c, 6-methoxy-3-(pyridin-3-yl)chroman-4-one] | – | inactive | more than 2 fold | growth inhibition (in words) [3]: no growth inhibition was observed
